Measurements from patent US8026255B2, “Substituted piperidines as somatostatin receptor subtype 5 (SSTR5) antagonists” (Hoffman-La Roche Inc., priority 2006, dated 2011).

biological target: T1, human subtype 5 somatostatin receptor (Homo sapiens, UniProt P35346); experiment: SSTR5 radioligand binding assay (membranes of transfected CHO cells, 125I-labeled 11-Tyr somatostatin-14 tracer); settings: CHO cell membranes, Ki calculated from IC50 by Cheng-Prussoff equation
T1 construct: host or cells: CHO cells, stably transfected; membranes prepared from them
T1 sequence (P35346 whole entry): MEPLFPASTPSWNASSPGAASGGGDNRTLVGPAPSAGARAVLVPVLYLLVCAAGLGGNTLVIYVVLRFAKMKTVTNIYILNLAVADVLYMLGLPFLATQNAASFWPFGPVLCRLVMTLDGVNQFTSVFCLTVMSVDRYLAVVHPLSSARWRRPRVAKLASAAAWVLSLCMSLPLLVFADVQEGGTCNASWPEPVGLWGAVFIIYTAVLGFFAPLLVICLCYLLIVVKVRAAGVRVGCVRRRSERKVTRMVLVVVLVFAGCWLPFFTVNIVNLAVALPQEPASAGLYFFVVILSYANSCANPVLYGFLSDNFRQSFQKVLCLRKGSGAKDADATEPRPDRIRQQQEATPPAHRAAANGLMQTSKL
Procedure: A CHO cell line stably transfected with a plasmid encoding the human subtype 5 somatostatin receptor (GenBank accession number D16827) was obtained from Euroscreen. Cells were cultured and used for binding and functional assays.
Membranes of these cells were prepared by sonication in the presence of protease inhibitors and subsequent fractionating centrifugation. The protein concentration in the membrane preparation was determined using a commercial kit (BCA kit, Pierce, USA). Membranes were stored at −80° C. until use. After thawing, membranes were diluted in assay buffer (50 mM Tris-HCl at pH 7.4, 5 mM MgCl2 and 0.20% BSA) and subjected to dounce homogenization.
For binding studies, 0.1 mL membrane suspension, corresponding to app. 6×10^−15 mol receptor, was incubated for 1 h at room temperature with 0.05 nM ^125I-labeled tracer (11-Tyr somatostatin-14, Perkin-Elmer) and either test compounds in varying concentrations or, for the determination of non-specific binding, 0.001 mM non-labeled somatostatin-14. The incubation was stopped by filtration through GF/B glassfiber filters and washing with ice-cold wash buffer (50 mM Tris-HCl at pH 7.4). The bound radioactivity was measured after application of a scintillation cocktail (Microscint 40) and expressed as disintegrations per minute (dpm).
The receptor concentration was determined in a prior saturation experiment where a fixed, arbitrary amount of membranes was incubated with a concentration range of radio-labeled tracer. This allows estimating the total number of specific binding sites per amount of protein (i.e., Bmax), typically between 1 and 5 pmol/mg.
The concentration of the test compound required to result in half maximal inhibition of binding of the radio-labeled tracer (IC50) was estimated from a concentration-versus-dpm graph. The binding affinity (Ki) was calculated from the IC50 by applying the Cheng-Prussoff equation for single binding sites.

Ki	SMILES
0.789 µM	CCOc1cc(CN2CCC(Nc3nc(C)c(-c4ccccc4)cc3C#N)CC2)ccc1OC [Example 24, 2-[1-(3-ethoxy-4-methoxy-benzyl)-piperidin-4-ylamino]-6-methyl-5-phenyl-nicotinonitrile]
0.007 µM	CCOc1cc(CN2CCC(Nc3ccc4ccccc4n3)CC2)cc(OCC)c1F [Example 103, [1-(3,5-diethoxy-4-fluoro-benzyl)-piperidin-4-yl]-quinolin-2-yl-amine]
0.086 µM	CCOc1cc(CN2CCC(Nc3cnc(C(N)=O)cn3)CC2)ccc1Cl [Example 205, 5-[1-(4-Chloro-3-ethoxy-benzyl)-piperidin-4-ylamino]-pyrazine-2-carboxylic acid amide]
